From patent US6908906B2, “Crystalline forms of pyrimidine nucleoside derivative” (Sankyo Company, Limited, priority 2001, dated 2005)

Assay: Stability test: storage in stoppered vessels at 60° C. under a nitrogen atmosphere, content by HPLC
Format: physicochemical
Settings: for Stability (Residual rate): based on initial content (100%)
Method: In the stability test, crystals B, C and D of the present invention prepared in Examples 1, 2 and 4, respectively and the amorphous powder (Amorphous A) of compound of general formula (I) described in Example 1 (1d) of the Japanese Patent No. 2569251 were used as reference. These compounds were placed in stoppered vessels separately and stored at 60° C. under a nitrogen atmosphere for 17 days, and the content of these compounds was measured on 5, 10 and 17 days after the initiation of the storage.
The content of these compounds was determined quantitatively with high performance liquid chromatography (HPLC), and the rate of the remaining compounds (%) was calculated by the content of Compound (I) determined at each sampling point based on the initial content (100%) determined immediately before the storage.

[1] = 5 days after the initiation of storage
[2] = 10 days after the initiation of storage
[3] = 17 days after the initiation of storage

| Compound | Stability (Residual rate) [1] | Stability (Residual rate) [2] | Stability (Residual rate) [3] | Stability (Residual rate) (17 days after the initiation of storage, listed as crystal D) | Stability (Residual rate) (17 days after the initiation of storage, listed as crystal B) | Stability (Residual rate) (17 days after the initiation of storage, listed as crystal C) | stability (in words) | Stability (Residual rate) (17 days after the initiation of storage, listed as amorphous A) |
| --- | --- | --- | --- | --- | --- | --- | --- | --- |
| CCCCCCCCCCCCCCCC(=O)Nc1ccn([C@@H]2O[C@H](CO)[C@@H](O)[C@@H]2C#N)c(=O)n1 [Crystal D, 2′-cyano-2′-deoxy-N^4-palmitoyl-1-β-D-arabinofuranosylcytosine] | 99.9% | 98.3% | 98.4% | 98.4% | – | – | – | – |
| CCCCCCCCCCCCCCCC(=O)Nc1ccn([C@@H]2O[C@H](CO)[C@@H](O)[C@@H]2C#N)c(=O)n1 [Crystal B, 2′-cyano-2′-deoxy-N^4-palmitoyl-1-β-D-arabinofuranosylcytosine] | 101.0% | 100.3% | 100.4% | – | 100% | – | – | – |
| CCCCCCCCCCCCCCCC(=O)Nc1ccn([C@@H]2O[C@H](CO)[C@@H](O)[C@@H]2C#N)c(=O)n1 [Crystal C, 2′-cyano-2′-deoxy-N^4-palmitoyl-1-β-D-arabinofuranosylcytosine] | 101.0% | 100.4% | 100.1% | – | – | 100% | – | – |
| CCCCCCCCCCCCCCCC(=O)Nc1ccn([C@@H]2O[C@H](CO)[C@@H](O)[C@@H]2C#N)c(=O)n1 [Amorphous A, 2′-cyano-2′-deoxy-N^4-palmitoyl-1-β-D-arabinofuranosylcytosine, reference compound] | 92.7% | 78.6% | 62.5% | – | – | – | extremely low | 62.5% |
